# According to PMC5449454, “Anti-Double-Stranded DNA IgG Participates in Renal Fibrosis through Suppressing the Suppressor of Cytokine Signaling 1 Signals” (Frontiers in Immunology, 2017):
# Legend:
# [1] = system: anti-dsDNA IgG; assay: MALDI-TOF MS, catalysis of peptide by anti-dsDNA IgG; design: species or system murine; conditions: peptide 2 µg/ml with IgG (molar ratio = 1:5), 37°C, 30 min, triplicate, versus L-form ALW
# Procedure: Matrix-assisted laser desorption/ionization–time of flight mass spectrometry was performed for identifying the sequences of peptide fragments. As described previously ([36]), an ABI 4800 Analyzer (AB Science, Foster City, CA, USA) was used for such analysis. The ALW (L-form or D-form) and KIR peptides (2 µg/ml) were mixed with anti-dsDNA IgG or control IgG (molar ratio = 1:5), respectively. The mixtures were incubated at 37°C for 30 min. Then, these samples were diluted in distilled water (1:100) and then mixed with the α-cyano-4-hydroxycinnamic acid matrix at a ratio of 1:1. Samples in triplicate were then loaded to the MALDI target. Mass spectrum was produced on 80 individual spectra of each spot.
# [2] = system: mesangial cells; assay: Real-time PCR, mesangial cells; type: cell-based, murine; conditions: anti-dsDNA IgG 2 µg/ml premixed with peptide 1 µg/ml, 2 days
# Procedure: Immortal murine mesangial cells and glomerular endothelial cells (Jieqing Biotech, Wuhan, China) were cultured in RPMI 1640 medium supplemented with 10% fetal bovine serum ([8], [33]). Immortal murine proximal tubular epithelial cells (kindly provided by Dr. Cheng Pan, Wuhan University, China) were cultured in Dulbecco’s modified Eagle’s medium as described previously ([34]).
# (§1) By using a HiTrap purification kit (GE Healthcare, Port Washington, NY, USA) ([8]), anti-dsDNA IgG was purified from the culture supernatants of murine WJ31 hydridoma clone (IgG2a; Jieqing Biotech). Control murine IgG (IgG2a; Jieqing Biotech) was verified by enzyme-linked immunosorbent assay (ELISA) to determine that there was no binding to DNA antigen (data not shown). Cells were starved routinely before the 2-day stimulation of anti-dsDNA IgG or control IgG (2 µg/ml). In some experiments, mesangial cells were stimulated with anti-dsDNA IgG (2 µg/ml) that was premixed with D-form (ALWPPNLHAWVP) or scrambled (PLPHNPWVLAAW) ALW peptide (1 µg/ml). The cell viability of three types of cells was measured using PrestoBlue viability reagent (Life Technologies, Carlsbad, CA, USA).
# (§2) As previously described ([8]), total RNA was extracted from fresh tissues or cultured cells, followed by reverse transcription. The 7900HT Fast PCR System (Applied Biosystems, Carlsbad, CA, USA) was used for PCR, and SYBR Green Master Mixes (Invitrogen, Grand Island, NY, USA) was used as fluorescent dye. The sequences of primers (Jieqing Biotech) are listed in Table S2 in Supplementary Material.
# [3] = system: glomerular endothelial cells; assay: Cell viability (PrestoBlue), glomerular endothelial cells; type: cell-based, murine; conditions: D-form ALW 1 µg/ml, 2 days
# Procedure: as §1
# Mesangial Glomerular Tubular cells endothelial epithelial
# Supplementary Figure S7. Cell viability assays of kidney cells. (A) Murine cells were cultured in vitro, and received control or anti-dsDNA IgG stimulation (2 µg/ml, 2 days). (B) Similarly, these cells were also stimulated with scrambled or D-form ALW peptide (1 µg/ml, 2 days). The cell viability was measured using PrestoBlue viability reagent. Data were from three independent experiments. Data points and error bars […]
# (also on this page, place not known: µ g/ml,2 µ g/ml,2 Cell viability (%) Cell viability (%))
# [4] = system: kidneys of SCID mice; assay: Renal mRNA levels by real-time PCR, SCID mice; type: in vivo; conditions: i.v.
# Text: Renal biopsies were obtained from patients with LN (n = 7), who had serum positivity of anti-dsDNA IgG (Table S1 in Supplementary Material). The diagnosis of LN was made based on the histological features of renal biopsies. For normal human controls, sera and non-lesional tissues were taken from patients (n = 5) who underwent surgical nephrectomy due to renal cell carcinoma or renal rupture (Table S1 in Supplementary Material). There was no statistical difference in term of age between the LN patients and the controls (p > 0.05). […] The MRL/lpr and MRL/MpJ mice (female, 12 or 24 weeks old, n = 5 each group) as well as SCID mice (female, 8 weeks old, n = 5 each group) were bred in the animal facility of Xi’an Jiaotong University Health Science Center. Urine, sera, and renal tissues were harvested from MRL/lpr and MRL/MpJ mice. Proteinuria was quantitated by the Coomassie brilliant blue method ([32]). All data about MRL/lpr and MRL/MpJ mice referred to that at age of 24 weeks unless otherwise noted. These SCID mice received intravenous injections of anti-dsDNA or control IgG at a dose of 100 µg twice weekly, which lasted for 4 weeks (n = 5 each group). Then, both serum and kidney samples were collected from SCID mice. This study was carried out in accordance with the recommendations of the guidelines of the Hospital Research Ethics Committee with written informed consent from all subjects. All subjects gave written informed consent in accordance with the Declaration of Helsinki. The protocol was approved by the Hospital Research Ethics Committee.
# as §2
# [5] = system: SOCS1, JAK2 and STAT1 in kidneys of SCID mice; assay: Renal SOCS1/JAK2/STAT1 proteins by Western blotting, SCID mice; type: in vivo; conditions: i.v., n = 5, versus anti-dsDNA IgG alone
# Text: Renal biopsies were obtained from patients with LN (n = 7), who had serum positivity of anti-dsDNA IgG (Table S1 in Supplementary Material). The diagnosis of LN was made based on the histological features of renal biopsies. For normal human controls, sera and non-lesional tissues were taken from patients (n = 5) who underwent surgical nephrectomy due to renal cell carcinoma or renal rupture (Table S1 in Supplementary Material). There was no statistical difference in term of age between the LN patients and the controls (p > 0.05). […] The MRL/lpr and MRL/MpJ mice (female, 12 or 24 weeks old, n = 5 each group) as well as SCID mice (female, 8 weeks old, n = 5 each group) were bred in the animal facility of Xi’an Jiaotong University Health Science Center. Urine, sera, and renal tissues were harvested from MRL/lpr and MRL/MpJ mice. Proteinuria was quantitated by the Coomassie brilliant blue method ([32]). […]
# Fresh tissues and cell cultures were extracted for lysates with the addition of protease inhibitor cocktail (Thermo Scientific, Waltham, MA, USA). […] The band intensities were quantitated by ImageJ 1.61u software (National Institutes of Health, Bethesda, MD, USA) and normalized to β-actin values accordingly. The intensities of blank groups were set as 1 (baseline), and the relative intensities were calculated in other groups.
# [6] = D-form ALW plus anti-dsDNA IgG, n = 5, versus anti-dsDNA IgG alone
# [7] = anti-dsDNA IgG pre-mixed with D-form ALW, n = 5
sequence,measurement,setting,value
"ALWPPNLHAWVP [D-form ALW, ALW peptide with two terminal residues A and P replaced with D-form ones]",resistance to catalysis by anti-dsDNA IgG,[1],enhanced resistance to catalysis
same,"CTGF mRNA expression level, ALW plus anti-dsDNA IgG",[2],significantly reduced
same,"Fn14 mRNA expression level, ALW plus anti-dsDNA IgG",[2],significantly reduced
same,"JAK2 mRNA level, ALW plus anti-dsDNA IgG",[2],decreased
same,"PDGFB mRNA expression level, ALW plus anti-dsDNA IgG",[2],significantly reduced
same,"SOCS1 mRNA expression level, ALW plus anti-dsDNA IgG",[2],did not affect
same,"STAT1 mRNA level, ALW plus anti-dsDNA IgG",[2],decreased
same,cell viability,[3],no changes
same,"renal JAK2 mRNA level, ALW plus anti-dsDNA IgG",[4]; [6],reduced
same,"renal SOCS1 mRNA level, ALW plus anti-dsDNA IgG",[4]; [6],not affected
same,"renal STAT1 mRNA level, ALW plus anti-dsDNA IgG",[4]; [6],reduced
same,"renal PDGFB mRNA level, ALW plus anti-dsDNA IgG",[4]; [7],substantial decrease
same,"renal TGF-β1 mRNA level, ALW plus anti-dsDNA IgG",[4]; [7],substantial decrease
same,"renal TWEAK mRNA level, ALW plus anti-dsDNA IgG",[4]; [7],substantial decrease
same,"renal JAK2 protein expression level, ALW plus anti-dsDNA IgG",[5],remarkable attenuation
same,"renal STAT1 protein expression level, ALW plus anti-dsDNA IgG",[5],remarkable attenuation
